Assay results as given in patent publication US11344527B2, “Methods and compositions for treating cancer” (Sutter West Bay Hospitals, priority 2007, dated 2022).
Where two headings read alike, the source gives them in different places.

Tests used:
Id-1 [1] = test: Id-1 protein expression by Western blot, U251; format: cell-based, human; conditions: FIG. 11
MDA-MB436 cells = test: MTT cell proliferation assay, MDA-MB436; conditions: Homo sapiens, MDA-MB-436, 72 h, read-out: IC50 antiproliferative, MDA-MB436
ERK, JNK, and p38 MAPK = test: MAPK activity (pERK, ERK, JNK, p38) by Western analysis, U251; format: cell-based, human; conditions: for p-ERK, higher concentrations alone compared with the combination: U251, three days, 2.5 μM Δ9-THC, 2.0 μM CBD, or 1.7 μM/0.4 μM combination, FIG. 6D; for p-ERK: U251, Δ9-THC 1.7 μM and/or CBD 0.4 μM, two days, FIG. 4
Method: Cells cultured and treated in 6-well dishes were washed twice with cold PBS. Lysis buffer was added and cells lysed by freezing for 10 min at −70° C. and then thawing. Cell lysate was collected and the concentration was determined using Bradford reagent. Equal amounts of protein were heated to 90° C. in Laemmli sample buffer with β-mercaptoethanol, and loaded onto a precast SDS-PAGE gel (Bio-Rad Laboratories, Hercules, Calif.). Protein was transferred to an Immobilon membrane (Millipore, Billerica, Mass.) overnight at 2-4° C. Blots were then blocked with 5% nonfat dry milk in TBS+Tween for 1 h. Primary antibody from Millipore (rabbit anti-phospho-JNK, rabbit anti-phospho-p38, rabbit anti-phospho-ERK1/2 and rabbit anti-ERK1/2, 1 mcg/mL) in blocking buffer was then added for 1 h. The blots were then rinsed three times 10 min with TBS+Tween. Secondary antibody (Donkey Anti-Rabbit IgG, Jackson Immunoresearch, West Grove, Pa.) was then added. Blots were incubated for 45 min and then washed 4 times for 15 min each. The blots were developed with SuperSignal Femto (Pierce, Rockford, Ill.), and imaged on either a Fluorchem 8900 (Alpha Innotech, San Leandro, Calif.) or ECL Hyperfilm (Amersham-Pharmacia, Piscataway, N.J.). Band intensity values were obtained (after background subtraction) directly from the […] using AlphaeaseFC software (San Leandro, Calif.) or from film using Image-J (NIH, MD). As a normalization control for loading, blots were stripped and re-probed with mouse alpha-tubulin (Abcam, Cambridge, Mass.) and goat anti-mouse IgG (Jackson Immunoresearch) for the primary and secondary antibodies, respectively.
The regulation of ERK, JNK, and p38 MAPK activity plays a role in controlling cell growth and apoptosis. U251 cells were used to determine whether modulation of ERK, JNK, and p38 MAPK activity occurred.

U87 cells = test: MTT cell proliferation assay, U87 GBM cells; format: cell-based, human; conditions: Homo sapiens, U-87 MG, 95% confidence limits
Method: (§1) The human GBM cell lines used were SF126, U87 and U251. Cell lines were maintained at 37° C. and 5% CO2.
(§2) Treatment groups were divided into 1) no treatment (control), 2) Δ^9-THC alone, 3) CBD alone, 4) Δ^9-THC and CBD combined. Positive and negative aspects of constituent interaction were determined in this 2×2 design using 2-way analysis of variance as described by (Slinker, 1998). […] Significant differences were also determined using ANOVA where suitable. […] P values <0.05 defined statistical significance.

U251 cells [2] = test: Cell cycle analysis (PI staining, FACS), U251; format: cell-based, human; conditions: Δ9-THC 1.7 μM and/or CBD 0.4 μM, FIG. 8
Method: U251 cells were grown in Petri dishes (100 mm×15 mm) and received drug treatments for 2 days. On the third day, the cells were harvested and centrifuged at 1200 rpm for 5 minutes. The pellet was washed 1× with PBS+1% BSA, and centrifuged again. The pellet was resuspended in 0.5 ml of 2% paraformaldehyde (diluted with PBS) and left to fix overnight at room temperature. The next day the cells were pelleted and resuspended in 0.5 ml 0.3% Triton in PBS and incubated for 5 minutes at room temperature. The cells were then washed 2 times with PBS+1% BSA. The cells were finally suspended in PBS (0.1% BSA) with 10 ug/ml Propidium Iodide and 100 μg/ml RNAse. The cells were incubated for 30 minutes at room temperature before being stored at 4 C. Cell cycle was measured using a FACS Calibur using Cell Quest Pro and Modfit software.

Id-1 promoter = Id-1 promoter luciferase reporter assay, MDA-MB231; format: cell-based, human; conditions: MDA-MB231 cells, 1.5 μM, 2 or 3 days; FIG. 2B, C
Method: A SacI-BspHI fragment of 2.2 kb corresponding to the 5′ upstream region of human Id-1 gene and driving a luciferase gene in a PGL-3 vector (Promega) has already been described (Id-1-sbsluc). Cells were plated in six well dishes in medium supplemented with 10% FBS and 5 μg/ml insulin. After 24 h, cells were cotransfected with […] of luciferase reporter plasmids and 2 μg of pCMVβ (Clontech) using superfect reagent (Qiagen). pCMVβ contained bacterial β-galactosidase and served to control for variation in transfection efficiency. 3 h after transfection, the cells were rinsed twice with PBS and were cultured in the absence or presence of CBD for 48-72 h. Cell pellets were lysed in 80 μl of reporter lysis buffer (Promega) for 10 min at room temperature. Lysed cells were centrifuged and supernatants harvested. […]
To determine if this effect was due to the inhibition of transcription, a construct was used that contained the Id-1 promoter fused to a luciferase reporter in a PGL-3 basic vector. […] Twenty-four hours after transfection, MDA-MB231-Id-1-luc cells were treated with CBD for 2 or 3 days and luciferase activity was measured (FIG. 2, panel B and panel C). […] These findings correlated to the data obtained when the expression of the Id-1 protein was assessed by Western analysis.

MDA-MB231 cells [3] = test: Boyden chamber invasion assay, MDA-MB231; format: cell-based, human; conditions: for invasion of MDA-MB231 cells: 0.1, 1.0 or 1.5 μM, FIG. 1A
Method: Invasion is an important step towards breast cancer cell metastasis. Therefore, the effects of several cannabinoids were tested on their ability to modulate the migratory and invasiveness activity of the most aggressive human breast cancer cell line, MDA-MB231, in a reconstituted basement membrane in a Boyden chamber.

SF126 cells = test: MTT cell proliferation assay, SF126 GBM cells; format: cell-based, human; conditions: Homo sapiens
Method: as §1, §2

U251 cells [4] = test: MTT cell proliferation assay, U251 GBM cells; format: cell-based, human; conditions: Homo sapiens, 95% confidence limits
Method: as §1, §2

MDA-MB231 cells [5] = test: MTT cell proliferation assay, MDA-MB231; conditions: Homo sapiens, MDA-MB-231, 72 h, read-out: IC50 antiproliferative, MDA-MB231
U251 cells [6] = test: Boyden chamber invasion assay, U251; format: cell-based, human
U251 cells [7] = test: Apoptosis (annexin staining, FACS), U251; format: cell-based, human; conditions: U251, three days
Method: Cells were grown in 6 well culture dishes and were treated with the appropriate compounds every 24 hours for three days. The cells were trypsinized, washed with PBS, and processed for labeling with fluorescein-tagged UTP nucleotide and PI by use of an Apo-Direct apoptosis kit obtained from Phoenix Flow Systems (San Diego, Calif.) and was used according to the manufacturer's protocol. The labeled cells were analyzed by flow cytometry. Cell Flow Cytometry in combination with PI and annexin staining was used to quantify the percentage of cells undergoing apoptosis in control and treatment groups. % control was calculated as annexin positive staining in treated cells/control cells×100. PI staining was used to distinguish necrotic cells from those undergoing apoptosis.

Id-1 [8] = test: Id-1 protein expression by quantitative Western analysis, MDA-MB231; format: cell-based, human; conditions: MDA-MB231 cells, 1.5 μM, two days, FIG. 1E
Text: Proteins were separated by SDS/PAGE, blotted on Immobilon membrane, and probed with anti-Id-1 and the appropriate secondary antibody. Band intensity values were obtained directly from the blot using AlphaeaseFC software (San Leandro, Calif.) or from film using Image-J (NIH, MD). As a normalization control for loading, blots were stripped and re-probed with mouse alpha-tubulin (Abeam, Cambridge, Mass.).
The ability of CBD to regulate the expression of key genes that control breast cancer cell aggressiveness and invasiveness was determined A potential candidate protein that could mediate the effects of CBD on both phenotypes was the helix-loop-helix protein Id-1. […] The inhibitory effect of CBD on Id-1 expression occurred at concentrations as low as 100 nM. […] The CBD concentrations effective at inhibiting Id-1 expression correlated with those used to inhibit the proliferative and invasive phenotype of MDA-MB231 cells. Furthermore, the time period needed to observe the down-regulation of Id-1 protein in the presence of CBD correlated with the inhibitory effects of CBD on the aggressiveness and invasiveness of MDA-MB231 cells (FIG. 1, panel D).
In order to determine the SAR between cannabinoids and the inhibition of Id-1, MDA-MB231 cells were treated for two days with multiple cannabinoid compounds and Id-1 protein levels were assessed.

caspase 3, 7, 9 and PARP = test: Caspase and PARP Western analysis, U251; format: cell-based, human; conditions: U251, three days; Δ9-THC 1.7 μM and/or CBD 0.4 μM; FIG. 9
[9] = SF-126, 72 h, three day treatment, 95% confidence limits (Table 4), read-out: IC50 antiproliferative, SF126

C=C(C)[C@@H]1CCC(C)=C[C@H]1c1c(O)cc(CCCCC)cc1O [CBD, cannabidiol]
Id-1 protein expression in U251 cells (Id-1 [1]): concentration-dependent inhibition
IC50 (MDA-MB436 cells): 1500 nM
p-ERK, higher concentrations alone compared with the combination (ERK, JNK, and p38 MAPK): small inhibition
p-ERK (ERK, JNK, and p38 MAPK): no changes
IC50 (U87 cells; 72 h, three day treatment, read-out: CBD IC50, U87): 700 nM
cell cycle distribution (U251 cells [2]): increases in the population of cells in G1 and G2/M phase and decreases in cells in S phase
Id-1 promoter luciferase activity (Id-1 promoter): significant inhibition
cell invasiveness, control MDA-MB231 (-Id1) cells (MDA-MB231 cells [3]; 1.5 μM, two day treatment, empty pLXSN vector, FIG. 7): significant reduction
invasion of MDA-MB231 cells (MDA-MB231 cells [3]): significantly reduced
IC50 (SF126 cells; [9]): 1200 nM
IC50 (SF126 cells; SF-126, 72 h, three day treatment, 95% confidence limits, read-out: CBD IC50, SF126): 1200 nM
IC50 (SF126 cells; SF-126, limits 0.64-0.82, reported with the Table 3 experiments, read-out: IC50 antiproliferative, SF126): 730 nM
IC50 (U251 cells [4]; U-251, 72 h, three day treatment, read-out: CBD IC50, U251): 600 nM

CCCCCc1cc(O)c2c(c1)OC(C)(C)C1CCC(C)=CC21 (stereo not shown) [Δ^9-THC, tetrahydrocannabinol]
IC50 (MDA-MB436 cells): 2500 nM
IC50 (MDA-MB231 cells [5]): 1200 nM
p-ERK, higher concentrations alone compared with the combination (ERK, JNK, and p38 MAPK): no effect
p-ERK (ERK, JNK, and p38 MAPK): no changes
invasiveness of U251 cells (U251 cells [6]; Boyden chamber, FIG. 10): effectively inhibited
IC50 (U251 cells [6]; Homo sapiens, U-251, limits 49-150, read-out: predicted IC50 to inhibit U251 cell invasiveness): 85 nM
IC50 (U87 cells; 168 h, seven day treatment, read-out: IC50 antiproliferative, U87): 1600 nM
cell cycle distribution (U251 cells [2]): increases in the population of cells in G1 and G2/M phase and decreases in cells in S phase
apoptosis in the presence of the CB2 antagonist SR144528 (U251 cells [7]; 0.5 μM SR144528, combination 1.7/0.4 μM, 2.5 μM Δ9-THC or 2.0 μM CBD, FIG. 6): partially blocked
apoptosis in the presence of α-tocopherol (U251 cells [7]; 20 μM α-tocopherol, combination 1.7/0.4 μM, 2.5 μM Δ9-THC or 2.0 μM CBD, FIG. 6): completely blocked
apoptosis (annexin staining) (U251 cells [7]; Δ9-THC 1.7 μM and/or CBD 0.4 μM, FIG. 5): did not produce significant changes
invasion of MDA-MB231 cells (MDA-MB231 cells [3]): significantly reduced
IC50 (SF126 cells; [9]): 2500 nM
IC50 (SF126 cells; SF-126, 168 h, seven day treatment, 95% confidence limits, read-out: IC50 antiproliferative, SF126): 900 nM
IC50 (U251 cells [4]; U-251, 168 h, seven day treatment, read-out: IC50 antiproliferative, U251): 1100 nM
inhibition of Id-1 protein (structure activity relationship) (Id-1 [8]): No inhibition
inhibition of Id-1 protein (structure activity relationship) (Id-1 [8]; listed as THC): no activity
caspase 3, 7, 9 and PARP activation (caspase 3, 7, 9 and PARP): Small increases in the activity of caspase 7, caspase 9 and PARP but not caspase 3
